Source: PMC8907714, “Antimicrobial property of Pichia pastoris‐derived natto peptide against foodborne bacteria and its preservative potential to maintain pork quality during refrigerated storage” (Food Science & Nutrition, 2022)

How the values were obtained:
E. coli O157 = test: Time‐killing curve; format: cell-based, Escherichia coli; details: gentamicin positive control, concentration not given
Method: Time‐killing curves were obtained as described previously to evaluate the bactericidal rates of natto peptide (Dong & Sun, [2021]). Concisely, the natto peptide at final concentrations of 1×, 2×, and 4× MICs was incubated with E. coli O157, which was cultured to midlog phase. Then, the culture samples were harvested at different time intervals for colony counting. PBS buffer and gentamicin were used as negative and positive controls. All the experiments were performed in triplicate.

[1] = tested on: total bacteria, Staphylococcus spp., Escherichia spp., and Pseudomonas spp.; test: Microbial growth in pork during refrigerated storage, colony count; details: pork soaked 20 min, natto peptide 30, 60, 90 μg/ml, nisin 50 μg/ml, butyl paraben 100 μg/ml, 4°C, 8‐day storage
Method: Fresh‐pork legs were bought from a local butcher (Binzhou, China) 24 h postmortem. The connective tissue and fat of the pork were removed before cutting into even slices (5 ± 0.1 g). Afterwards, the slices were soaked in 0, 30, 60, and 90 μg/ml of natto peptide for 20 min. Then, the slices were drained and placed in sterilized polyvinyl chloride trays, sealed using a polyethylene film, and stored at 4°C in a refrigerator for 8 days. Meanwhile, 50 μg/ml of nisin and 100 μg/ml of butyl paraben were used as positive controls to analyze the aseptic effects of natto peptide, including microbial growth, TVB‐N, lipid oxidation, pH, drip loss, and sensory quality during storage.
The microbial growth of pork was determined by colony count, as described previously (Meng et al., [2021]). In brief, after the pork sample (5 g) was homogenized with 0.9% sterilized saline buffer (25 ml), 100 μl of the 10× diluent was spread on plate‐count agar, mannitol‐salt agar, violet red bile agar, and centrimide (CN) agar, and incubated at a suitable temperature for 48 h. All experiments were performed three times.

Row | Molecule | time until bacteria were completely killed (E. coli O157) [h] | bacterial growth in pork compared with control [1]
1 | CNC(C)C1CCC(N)C(OC2C(N)CC(N)C(OC3OCC(C)(O)C(NC)C3O)C2O)O1 (stereo not drawn) [gentamicin] | 1.5 | –
2 | Nisin | – | moderate inhibitory effect
3 | CCCCOC(=O)c1ccc(O)cc1 [Butyl paraben] | – | effective inhibition function
